# “And” between values parts separate entries of the source, which are not always exact repeats. Equal values may be shown once.
# Key:
# [1] = Ulcerogenic activity in fasted albino mouse assessed as average severity of ulcers in gastric mucosa at 10 mg/kg, po for 3 days (reference value: 0); format: toxicity, organism-based; details: in vivo, 72 h, time 3 day
# [2] = test system: Mus musculus; assay: Analgesic activity in albino mouse assessed as forepaw licking/jumping latency time at 10 mg/kg, ip measured after 60 mins by hot plate test (reference value: 3.42 +/- 0.03 sec); format: functional; details: 1 h
# [3] = test system: Pseudomonas aeruginosa; assay: Antibacterial activity against Pseudomonas aeruginosa ATCC 27853 incubated for 18 hrs by agar dilution assay; format: functional
# [4] = test system: Splenocyte; assay: Immunomodulatory activity in Swiss albino mouse splenocytes assessed as cell viability at 10 uM by measuring inhibition of stimulation index incubated for 72 hrs in presence of mitogenic stimulus phytohaemagglutinin by MTT assay relative to indomethacin; format: functional; details: read-out: Activity
# [5] = Ulcerogenic activity in fasted albino mouse assessed as ulcer index in gastric mucosa at 10 mg/kg, po for 3 days (reference value: 0); format: toxicity, organism-based; details: in vivo, 72 h, time 3 day
# [6] = test system: Mus musculus; assay: Analgesic activity in albino mouse assessed as protection at 10 mg/kg, ip measured after 60 mins by hot plate test (reference value: 0 %); format: functional; details: 1 h
# [7] = test system: Peritoneal macrophage; assay: Antiinflammatory activity in […] mouse Peritoneal macrophages assessed as reduction in LPS-induced NO production by measuring reduction in stimulation index at 10 uM preincubated for 1 hr followed by LPS stimulation measured after 24 hrs by Griess method (reference value: 27.31 +/- 2.56 uM); format: functional; details: time 25 hrs
# [8] = test system: Rattus norvegicus; assay: Antiinflammatory activity in Wistar rat model of carrageenan-induced paw edema assessed as reduction in thickness of paw edema at 10 mg/kg, ip pretreated for 1 hr followed by carrageenan challenge and measured after 4 hrs (reference value: 1.40 +/-0.10 mm); format: functional; details: time 5 hrs
# [9] = Toxicity in albino mouse assessed as induction of toxic symptoms at 50 to 100 mg/kg, ip measured after 24 hrs; format: organism-based; details: in vivo, dose 50-100 mg/kg
# [10] = test system: Mus musculus; assay: Analgesic activity in albino mouse assessed protection against acetic acid-induced abdominal writhing at 10 mg/kg, ip pretreated for 1 hr followed by acetic acid challenge and measured starting 5 mins post acetic acid challenge for 10 mins relative to indomethacin; format: functional; details: time 75 min, 1.25 h
# [11] = test system: Mus musculus; assay: Analgesic activity in albino mouse assessed as forepaw licking/jumping latency time at 10 mg/kg, ip measured after 120 mins by hot plate test (reference value: 2.62 +/- 0.06 sec); format: functional; details: 2 h
# [12] = test system: Rattus norvegicus; assay: Anti-inflammatory activity in Wistar rat assessed as inhibition of carrageenan-induced paw edema at 10 mg/kg, ip pretreated for 1 hr followed by carrageenan challenge and measured after 1 hr relative to control (reference value: 0.00 +/-0.02 %); format: functional; details: time 2 hrs
# [13] = test system: Mus musculus; assay: Analgesic activity in albino mouse assessed as protection at 10 mg/kg, ip measured after 120 mins by hot plate test (reference value: 0 %); format: functional; details: 2 h
# [14] = test system: Mus musculus; assay: Analgesic activity in albino mouse assessed as protection at 10 mg/kg, ip measured after 120 mins by hot plate test relative to indomethacin; format: functional; details: 2 h
# [15] = test system: Rattus norvegicus; assay: Anti-inflammatory activity in Wistar rat assessed as inhibition of carrageenan-induced paw edema at 10 mg/kg, ip pretreated for 1 hr followed by carrageenan challenge and measured after 24 hr relative to control (reference value: 0.00 +/-0.3 %); format: functional; details: time 25 hrs
# [16] = test system: Mus musculus; assay: Analgesic activity in albino mouse assessed as forepaw licking/jumping latency time at 10 mg/kg, ip measured after 30 mins by hot plate test (reference value: 5.02 +/- 0.09 sec); format: functional; details: 0.5 h
# [17] = test system: Staphylococcus aureus; assay: Antibacterial activity against Staphylococcus aureus ATCC 25923 incubated for 18 hrs by agar dilution method; format: functional
# [18] = test system: Rattus norvegicus; assay: Antiinflammatory activity in Wistar rat model of carrageenan-induced paw edema assessed as reduction in thickness of paw edema at 10 mg/kg, ip pretreated for 1 hr followed by carrageenan challenge and measured after 1 hr (reference value: 2.41 +/-0.05 mm); format: functional; details: time 1 hr after carrageenan
# [19] = Ulcerogenic activity in fasted albino mouse assessed as incidence of gastric ulceration at 10 mg/kg, po for 3 days (reference value: 0 %); format: toxicity, organism-based; details: in vivo, 72 h, time 3 day
# [20] = test system: Mus musculus; assay: Analgesic activity in albino mouse assessed protection against acetic acid-induced abdominal writhing at 10 mg/kg, ip pretreated for 1 hr followed by acetic acid challenge and measured starting 5 mins post acetic acid challenge for 10 mins relative to control (reference value: 0 %); format: functional; details: time 75 min, 1.25 h
# [21] = test system: Rattus norvegicus; assay: Anti-inflammatory activity in Wistar rat assessed as inhibition of carrageenan-induced paw edema at 10 mg/kg, ip pretreated for 1 hr followed by carrageenan challenge and measured after 4 hr relative to control (reference value: 0.00 +/-0.4 %); format: functional; details: time 5 hrs
# [22] = test system: Salmonella typhimurium; assay: Antibacterial activity against Salmonella typhimurium ATCC 19430 incubated for 18 hrs by agar dilution assay; format: functional, Salmonella enterica subsp. enterica serovar Typhimurium; details: Salmonella enterica
# [23] = test system: Mus musculus; assay: Analgesic activity in albino mouse assessed as protection at 10 mg/kg, ip measured after 30 mins by hot plate test (reference value: 0 %); format: functional; details: 0.5 h
# [24] = test system: Mus musculus; assay: Analgesic activity in albino mouse assessed as forepaw licking/jumping latency time at 10 mg/kg, ip measured after 90 mins by hot plate test (reference value: 2.72 +/- 0.01 sec); format: functional; details: 1.5 h
# [25] = test system: Peritoneal macrophage; assay: Antiinflammatory activity in […] mouse Peritoneal macrophages assessed as inhibition of LPS-induced NO production at 10 uM preincubated for 1 hr followed by LPS stimulation measured after 24 hrs by Griess method relative to control (reference value: 0.0 %); format: functional; set-up: scale not given: the % may be the effect or the level left; details: time 25 hrs
# [26] = test system: Rattus norvegicus; assay: Antiinflammatory activity in Wistar rat model of carrageenan-induced paw edema assessed as reduction in thickness of paw edema at 10 mg/kg, ip pretreated for 1 hr followed by carrageenan challenge and measured after 24 hrs (reference value: 0.83 +/-0.08 mm); format: functional; details: time 25 hrs
# [27] = Ulcerogenic activity in fasted albino mouse assessed as average number of ulcers in gastric mucosa at 10 mg/kg, po for 3 days (reference value: 0); format: toxicity, organism-based; details: in vivo, 72 h, time 3 day
# [28] = test system: Rattus norvegicus; assay: Antiinflammatory activity in Wistar rat model of carrageenan-induced paw edema assessed as reduction in thickness of paw edema at 10 mg/kg, ip pretreated for 1 hr followed by carrageenan challenge and measured after 2 hrs (reference value: 2.06 +/-0.09 mm); format: functional; details: time 3 hrs
# [29] = test system: Splenocyte; assay: Immunomodulatory activity in Swiss albino mouse splenocytes assessed as cell viability at 10 uM by measuring stimulation index incubated for 72 hrs in presence of mitogenic stimulus phytohaemagglutinin by MTT assay (reference value: 1.00 +/- 0.24); format: functional
# [30] = test system: Streptococcus pyogenes; assay: Antibacterial activity against Streptococcus pyogenes ATCC 19615 incubated for 18 hrs by agar dilution method; format: functional
# [31] = test system: Rattus norvegicus; assay: Anti-inflammatory activity in Wistar rat assessed as inhibition of carrageenan-induced paw edema at 10 mg/kg, ip pretreated for 1 hr followed by carrageenan challenge and measured after 2 hr relative to control (reference value: 0.00 +/-0.03 %); format: functional; details: time 3 hrs
# [32] = test system: Rattus norvegicus; assay: Anti-inflammatory activity in Wistar rat assessed as inhibition of carrageenan-induced paw edema at 10 mg/kg, ip pretreated for 1 hr followed by carrageenan challenge and measured after 4 hr relative to indomethacin; format: functional; details: time 5 hrs
# [33] = test system: Candida albicans; assay: Antifungal activity against Candida albicans incubated for 18 to 24 hrs by CLSI method; format: functional; details: time 18-24 hrs
# [34] = test system: Rattus norvegicus; assay: Antiinflammatory activity in Wistar rat model of carrageenan-induced paw edema assessed as reduction in thickness of paw edema at 10 mg/kg, ip pretreated for 1 hr followed by carrageenan challenge and measured after 3 hrs (reference value: 1.79 +/-0.07 mm); format: functional; details: time 4 hrs
# [35] = test system: Mus musculus; assay: Analgesic activity in albino mouse assessed as protection at 10 mg/kg, ip measured after 90 mins by hot plate test (reference value: 0 %); format: functional; details: 1.5 h
# [36] = test system: Mus musculus; assay: Analgesic activity in albino mouse assessed reduction in acetic acid-induced abdominal writhing by measuring writing reflex at 10 mg/kg, ip pretreated for 1 hr followed by acetic acid challenge and measured starting 5 mins post acetic acid challenge for 10 mins (reference value: 42.4 +/- 1.02); format: functional; details: time 75 min, 1.25 h
# [37] = test system: Rattus norvegicus; assay: Anti-inflammatory activity in Wistar rat assessed as inhibition of carrageenan-induced paw edema at 10 mg/kg, ip pretreated for 1 hr followed by carrageenan challenge and measured after 3 hr relative to control (reference value: 0.00 +/-0.1 %); format: functional; details: time 4 hrs
MIC [3],MIC [17],SMILES,Activity [1],Time [2] [s],viability at 10 µM [4] [%],UI [5],Activity [6] [%],Activity [7] [µM],Activity [8] [mm],Activity [9],Activity [10] [%],Time [11] [s],inhibition in vivo at 10 mg/kg [12] [%],Activity [13] [%],Activity [14] [%],inhibition in vivo at 10 mg/kg [15] [%],Time [16] [s],Activity [18] [mm],Activity [19] [%],Activity [20] [%],further results
1 µg/mL and 1.11 µM,0.125 µg/mL and 0.139 µM,COc1cc(/C=C/C(=O)/C=C(O)/C=C/c2ccc(OC(=O)[C@@H](CCSC)NC(=O)OCc3ccccc3)c(OC)c2)ccc1OC(=O)[C@@H](CCSC)NC(=O)OCc1ccccc1,0,5.44,88.5,0,59.1,16.16,0.08,Non-Toxic,29.1,4.68,79,78.6,187.1,90,5.48,0.51,0,17.9,inhibition in vivo at 10 mg/kg [21]: 94%; MIC [22]: 0.5 µg/mL and 0.556 µM; Activity [23]: 9.2%; Time [24]: 4.88 s; Activity [25]: 40.84%; Activity [26]: 0.08 mm; Activity [27]: 0; Activity [28]: 0.41 mm; Activity_index [29]: 1.37; MIC [30]: 0.125 µg/mL and 0.139 µM; inhibition in vivo at 10 mg/kg [31]: 80%; inhibition in vivo at 10 mg/kg [32]: 108%; MIC [33]: 0.125 µg/mL and 0.139 µM; Activity [34]: 0.27 mm; Activity [35]: 79.4%; Activity [36]: 34.8; inhibition in vivo at 10 mg/kg [37]: 85%
1 µg/mL and 1.08 µM,1 µg/mL and 1.08 µM,COc1cc(/C=C/C(=O)/C=C(O)/C=C/c2ccc(OC(=O)CNC(=O)OCC3c4ccccc4-c4ccccc43)c(OC)c2)ccc1OC(=O)CNC(=O)OCC1c2ccccc2-c2ccccc21,0,4.08,68.8,0,19.3,18.73,0.29,Non-Toxic,93.3,3.72,40,42,100,82,5.96,1.45,0,57.5,inhibition in vivo at 10 mg/kg [21]: 79%; MIC [22]: 1 µg/mL and 1.08 µM; Activity [23]: 18.7%; Time [24]: 3.82 s; Activity [25]: 31.43%; Activity [26]: 0.15 mm; Activity [27]: 0; Activity [28]: 0.78 mm; Activity_index [29]: 1.76; MIC [30]: 1 µg/mL and 1.08 µM; inhibition in vivo at 10 mg/kg [31]: 62%; inhibition in vivo at 10 mg/kg [32]: 91%; MIC [33]: 2 µg/mL and 2.16 µM; Activity [34]: 0.47 mm; Activity [35]: 40.4%; Activity [36]: 18; inhibition in vivo at 10 mg/kg [37]: 74%
